What all share (format): in vivo
What all share (conditions): evaluated after 13 days

For test [1], the system named is Amaranthus retoflexus (AMARE). Put plainly: Pre-emergence glasshouse herbicide test. The procedure:
(§1) Seeds of a variety of test species are sown in standard soil in pots (Lolium perenne (LOLPE), Amaranthus retoflexus (AMARE), Abutilon theophrasti (ABUTH), Setaria faberi (SETFA), Echinochloa crus-galli (ECHCG), Ipomoea hederacea (IPOHE)). After cultivation for one day (pre-emergence) or after 8 days cultivation (post-emergence) under controlled conditions in a glasshouse (at 24/16° C., day/night; 14 hours light; 65% humidity), the plants are sprayed with an aqueous spray solution derived from the formulation of the technical active ingredient in acetone/water (50:50) solution containing 0.5% Tween™ 20 (polyoxyethelyene sorbitan monolaurate, CAS RN 9005-64-5). Compounds are applied at 125 g/h unless otherwise indicated. The test plants are then grown in a glasshouse under controlled conditions in a glasshouse (at 24/16° C., day/night; 14 hours light; 65% humidity) and watered twice daily. After 13 days for pre- and post-emergence, the test is evaluated for the percentage damage caused to the plant. The biological activities are shown in the following table on a five-point scale (5=80-100%; 4=60-79%; 3=40-59%; 2=20-39%; 1=0-19%).

Test [2] concerns Setaria faberi (SETFA). The test is described as follows: Pre-emergence glasshouse herbicide test. The procedure:
as §1

Test [3] relates to Echinochloa crus-galli (ECHCG). The test is described as follows: Pre-emergence glasshouse herbicide test. The procedure: as §1
The test system of test [4] is Ipomoea hederacea (IPOHE). Put plainly: Pre-emergence glasshouse herbicide test. As to the method: as §1
In test [5] the test system is Abutilon theophrasti (ABUTH). Put plainly: Pre-emergence glasshouse herbicide test. The procedure:
as §1

Test [6] relates to Amaranthus retoflexus (AMARE). The test is described as follows: Post-emergence glasshouse herbicide test. The procedure:
as §1

For test [7], the system named is Setaria faberi (SETFA). The test is described as follows: Post-emergence glasshouse herbicide test. The procedure:
as §1

In test [8] the test system is Echinochloa crus-galli (ECHCG). The test is described as follows: Post-emergence glasshouse herbicide test. As to the method: as §1
Test [9] relates to Ipomoea hederacea (IPOHE). Put plainly: Post-emergence glasshouse herbicide test. The procedure: as §1
Test [10] deals with Abutilon theophrasti (ABUTH). The test is described as follows: Post-emergence glasshouse herbicide test. The procedure:
as §1

`Cc1c(C(=O)Nc2nnnn2C)ccc(OC(F)(F)F)c1S(C)(=O)=O` [Compound 1.013]: the “percentage damage caused to the plant, AMARE” value in test [1] (125 g/h) and in test [6] (125 g/h) was 5 (5=80-100%) in each case. For the same compound, the “percentage damage caused to the plant, SETFA” value in [2] (125 g/h) and in test [7] (125 g/h) was 5 (5=80-100%) each time. Also, the “percentage damage caused to the plant, ECHCG” value in test [3] (125 g/h) and in [8] (125 g/h) was 5 (5=80-100%) throughout. For the same compound, the “percentage damage caused to the plant, IPOHE” value in test [4] (125 g/h) and in test [9] (125 g/h) was 5 (5=80-100%) in each case. For the same compound, the “percentage damage caused to the plant, ABUTH” value in [5] (125 g/h) and in test [10] (125 g/h) was 5 (5=80-100%) each time.
Take `Cc1nnc(NC(=O)c2ccc(OC(F)(F)F)c(S(C)(=O)=O)c2Cl)o1` [Compound 2.005]: the “percentage damage caused to the plant, AMARE” value in test [1] (*Applied at 250 g/ha) and in [6] (*Applied at 250 g/ha) was 5 (5=80-100%) in each case. In addition, the “percentage damage caused to the plant, SETFA” value in [2] (*Applied at 250 g/ha) and in test [7] (*Applied at 250 g/ha) was 5 (5=80-100%) in each case. Further, the “percentage damage caused to the plant, ECHCG” value in [3] (*Applied at 250 g/ha) and in test [8] (*Applied at 250 g/ha) was 5 (5=80-100%) throughout. Further, the “percentage damage caused to the plant, IPOHE” value in test [4] (*Applied at 250 g/ha) was 1 (1=0-19%); in test [9] (*Applied at 250 g/ha), 5 (5=80-100%). Moreover, the “percentage damage caused to the plant, ABUTH” value in test [5] (*Applied at 250 g/ha) and in [10] (*Applied at 250 g/ha) was 5 (5=80-100%) in each case.
For the compound `CCCS(=O)(=O)c1c(OC(F)F)ccc(C(=O)Nc2nnnn2C)c1Cl` [Compound 1.050], the “percentage damage caused to the plant, AMARE” value in test [1] (125 g/h) and in test [6] (125 g/h) was 5 (5=80-100%) in each case. Besides, the “percentage damage caused to the plant, SETFA” value in test [2] (125 g/h) and in test [7] (125 g/h) was 5 (5=80-100%) each time. Moreover, the “percentage damage caused to the plant, ECHCG” value in [3] (125 g/h) and in test [8] (125 g/h) was 5 (5=80-100%) in each case. Further, the “percentage damage caused to the plant, IPOHE” value in test [4] (125 g/h) is recorded as 3 (3=40-59%); in [9] (125 g/h), 4 (4=60-79%). Also, the “percentage damage caused to the plant, ABUTH” value in test [5] (125 g/h) and in test [10] (125 g/h) was 5 (5=80-100%) throughout.
In the case of `CCSc1c(OC(F)F)ccc(C(=O)Nc2nnnn2C)c1Cl` [Compound 1.027], the “percentage damage caused to the plant, AMARE” value in [1] (125 g/h) and in test [6] (125 g/h) was 5 (5=80-100%) each time. Besides, the “percentage damage caused to the plant, SETFA” value in [2] (125 g/h) and in test [7] (125 g/h) was 5 (5=80-100%) each time. Besides, the “percentage damage caused to the plant, ECHCG” value in test [3] (125 g/h) and in [8] (125 g/h) was 5 (5=80-100%) each time. Moreover, the entries for the “percentage damage caused to the plant, IPOHE” value in test [4] (125 g/h) and in test [9] (125 g/h) were 3 (3=40-59%) and 4 (4=60-79%), respectively. Further, the “percentage damage caused to the plant, ABUTH” value in test [5] (125 g/h) and in [10] (125 g/h) was 5 (5=80-100%) each time.
On to `CC(C)CS(=O)(=O)c1c(OC(F)F)ccc(C(=O)Nc2nnnn2C)c1Cl` [Compound 1.052], for which the “percentage damage caused to the plant, AMARE” value in [1] (125 g/h) is on record as 5 (5=80-100%); in [6] (125 g/h) it was 4 (4=60-79%). Moreover, the results for the “percentage damage caused to the plant, SETFA” value in test [2] (125 g/h) and in test [7] (125 g/h) were 5 (5=80-100%) and 4 (4=60-79%), respectively. For the same compound, the entries for the “percentage damage caused to the plant, ECHCG” value in test [3] (125 g/h) and in test [8] (125 g/h) were 5 (5=80-100%) and 4 (4=60-79%), respectively. For the same compound, the “percentage damage caused to the plant, IPOHE” value in [4] (125 g/h) and in test [9] (125 g/h) was 5 (5=80-100%) each time. The “percentage damage caused to the plant, ABUTH” value in [5] (125 g/h) and in test [10] (125 g/h) was 5 (5=80-100%) in each case.
